Assay results taken from paper PMC9221371, “Flavonoid Derivatives as Potential Cholinesterase Inhibitors in Scopolamine-Induced Amnesic Mice: An In Vitro, In Vivo and Integrated Computational Approach” (Brain Sciences, 2022).
Like-named read-outs stand apart in the source and are kept apart here.

Tests used:
[1] = target: T1, AChE (electric eel type-VI-S) (Electrophorus electricus, UniProt O42275); assay: biochemical; details: 25 °C, triplicate
T1 construct: purchased Sigma-Aldrich (Taufkirchen, Germany)
T1 sequence (O42275 24-633): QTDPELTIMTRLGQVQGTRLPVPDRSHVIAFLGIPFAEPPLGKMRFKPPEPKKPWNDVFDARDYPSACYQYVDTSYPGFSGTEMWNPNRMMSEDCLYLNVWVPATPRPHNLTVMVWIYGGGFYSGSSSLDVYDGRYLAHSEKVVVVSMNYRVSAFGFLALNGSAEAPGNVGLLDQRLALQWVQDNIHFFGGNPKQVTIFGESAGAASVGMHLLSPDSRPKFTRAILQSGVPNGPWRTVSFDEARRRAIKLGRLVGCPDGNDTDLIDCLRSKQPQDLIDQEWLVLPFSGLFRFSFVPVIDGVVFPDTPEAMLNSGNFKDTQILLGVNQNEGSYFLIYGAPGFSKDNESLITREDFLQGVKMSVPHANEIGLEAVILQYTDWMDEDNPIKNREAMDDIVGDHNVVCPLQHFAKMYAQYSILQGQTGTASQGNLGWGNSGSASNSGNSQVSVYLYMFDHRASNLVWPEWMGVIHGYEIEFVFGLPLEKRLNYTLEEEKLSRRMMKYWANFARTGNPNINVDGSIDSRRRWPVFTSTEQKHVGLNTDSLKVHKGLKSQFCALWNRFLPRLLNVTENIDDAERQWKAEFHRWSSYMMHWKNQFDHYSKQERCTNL
Procedure: (§1) Synthetic flavonoids F1–F5 previously synthesized by our group were used in the study.
(§2) For the determination of acetylcholinesterase inhibitory potentials, AChE and BuChE were used. […] To the tube were added DTNB (100 µL) and buffer (2.4 mL). The tube was incubated at 25 °C for 5 min as pre-incubation. The reaction was started by adding ATChI (40 µL), and the mixture was incubated at 25 °C for 20 min. The absorbance at 412 nm was measured spectrophotometrically in triplicate. […] The data were recorded in triplicate, and IC50 was calculated.

[2] = target: T2, BuChE (equine serum lyophilized) (Equus caballus, UniProt P81908); assay: biochemical; details: triplicate; read-out: BChE IC50 (converted)
T2 construct: purchased Sigma-Aldrich (Taufkirchen, Germany); host or cells: equine serum
T2 sequence (P81908 whole entry): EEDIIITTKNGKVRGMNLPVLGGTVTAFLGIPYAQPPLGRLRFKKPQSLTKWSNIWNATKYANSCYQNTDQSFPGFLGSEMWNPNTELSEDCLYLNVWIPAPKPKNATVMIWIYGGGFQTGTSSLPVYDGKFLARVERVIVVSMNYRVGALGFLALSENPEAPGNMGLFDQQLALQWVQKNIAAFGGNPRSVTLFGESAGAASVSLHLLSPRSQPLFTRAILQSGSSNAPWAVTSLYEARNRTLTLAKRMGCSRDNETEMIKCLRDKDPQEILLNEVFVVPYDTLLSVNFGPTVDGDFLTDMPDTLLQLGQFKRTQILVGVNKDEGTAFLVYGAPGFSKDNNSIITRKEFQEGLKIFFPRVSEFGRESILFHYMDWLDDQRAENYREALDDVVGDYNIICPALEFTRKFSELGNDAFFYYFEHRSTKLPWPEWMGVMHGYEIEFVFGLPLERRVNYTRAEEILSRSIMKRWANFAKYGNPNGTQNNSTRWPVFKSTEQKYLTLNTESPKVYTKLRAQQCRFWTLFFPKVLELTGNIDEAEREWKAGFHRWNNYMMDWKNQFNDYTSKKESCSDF
Procedure: as §1, §2

Balb/C mice = assay: Acute toxicity study; assay type: in vivo; details: n = 3; for ALP / AST / Creatinine / Glucose / Total Cholesterol / Triglyceride: blood; for Kidney Weight / Liver Weight / Total Weight: mice
Source text: Two weeks before the experiment, the animals were acclimatized to laboratory conditions.
(§3) For assessment of acute toxicity of the flavones (F1–F5), animals (21 in number) were divided into groups of 3 animals each. The reported protocols by Lorke were followed with slight modification to perform tests in two phases. In the first phase, one (control) group of animals were given Tween-80 (2%), and oral doses of F1–F5 were given to the remaining groups, respectively, at various doses (mg/kg body weight). […] The animals were housed in plastic cages. After two weeks, the animals were sacrificed by euthanasia with isoflurane in a humane manner for assessment of the effects on total weight and weight of the vital organs. The biochemical parameters of blood and histological studies of vital organs (kidney and liver tissue) were also assessed. […] The preliminary pharmacological activity was assessed at various dose concentrations of F1–F5 (2.5–20 mg/kg b.w.) to determine the effective dose for assessment of cognitive function using animal models.

[3] = tested on: scopolamine-induced amnesic mice; assay: Y-Maze Paradigm, spontaneous alternation in scopolamine-induced amnesic model; assay type: in vivo, Balb/C mice; details: for Spontaneous Alternation Performance: scopolamine 1 mg/kg i.p., n = 8
Source text: as §3
(§4) The animals in the control (normal) and scopolamine amnesic groups were administered vehicle (Tween-80, 2%) only. Treated animals received F1–F5 suspended in Tween-80 (2%) p.o. at their respective doses for a period of 4 weeks. […] For assessing behavioral effects using the Y-Maze Paradigm and novel object discrimination (NOD) task, scopolamine (1 mg/kg, i.p.) was given to the different groups, 30 min after the respective treatments, to induce memory impairment (amnesia) in mice. All of the tests were performed between 8:00 a.m. and 6:00 p.m. to avoid sham results in the performance of the animals.
(§5) Behavioral tasks on the Y-Maze Paradigm and “NOD” tasks were conducted in the 5th week of study to determine learning and memory functions. The apparatus arena was cleaned with 70% ethanol during the inter-trial interval to prevent a confounding error due to the influence of odor [20, 21].
The Y-Maze task is a non-invasive and reliable behavioral test that was used for memory assessment of spontaneous alternation for F1–F5 based on previously reported protocols. A single session of Y-Maze was used to record the spontaneous alternation behavior of the animals to determine exploratory behavior and instant memory functioning. The apparatus was made of three arms in a “Y” shape (35 cm × 8 cm × 15 cm) with an equilateral triangular central area. In brief, each of the mice, previously naive to the maze, was placed at the terminal end of one arm. The animals were allowed to move and explore freely for 8 min through the maze. The number of arm entries was noted. One arm entry was considered when the hind paws of the animal were completely placed inside the arm, and the series of arm entries were documented. The spontaneous alternation in percent was calculated.

[4] = tested on: scopolamine-induced amnesic mice; assay: Novel object discrimination (NOD) task in scopolamine-induced amnesic model; assay type: in vivo, Balb/C mice; details: scopolamine 1 mg/kg i.p., n = 8
Procedure: as §4, §5
Animals were challenged for the novel object discrimination task for F1–F5 as per previously reported protocols. After habituation and acclimatization, animals in each group had two consecutive object exploration trials (5 min each) for this test, with a break of 4 h in between two trials. In the familiarization phase (sample), the animals were challenged to explore two objects similar to each other. In the second phase (test), any of the two objects was changed by a new object. Exploration time in sec for the objects, including chewing, licking, sniffing or pointing the vibrissae of nose towards the object, was recorded. The discrimination ratio (%DI) was then determined using:(T novel object − T familiar object)/(T novel object + T familiar object) × 100(1)

[5] = tested on: brains of scopolamine-induced amnesic mice; assay: Antioxidant enzyme activities and oxidative stress markers in brain homogenate; assay type: in vivo, Balb/C mice; details: for GSH / MDA: n = 8
Procedure: as §4
(§6) The brain was extracted, and a homogenate (10% w/v) in 0.1 M of phosphate buffer (pH 7.4) was prepared by centrifugation for the assessment of brain oxidative status and estimating brain acetylcholinesterase activity. Catalase (CAT), superoxide dismutase (SOD), glutathione (GSH) and level of lipid peroxidation (malondialdehyde, MDA) were quantified as oxidative stress markers.

[6] = target: T3, brain acetylcholinesterase (Mus musculus, UniProt P21836); assay type: in vivo; design: unit not given here; details: brain homogenate, n = 8
T3 construct: The brain was extracted, and a homogenate (10% w/v) in 0.1 M of phosphate buffer (pH 7.4) was prepared; from tissue; host or cells: mouse brain homogenate
T3 sequence (P21836 32-614): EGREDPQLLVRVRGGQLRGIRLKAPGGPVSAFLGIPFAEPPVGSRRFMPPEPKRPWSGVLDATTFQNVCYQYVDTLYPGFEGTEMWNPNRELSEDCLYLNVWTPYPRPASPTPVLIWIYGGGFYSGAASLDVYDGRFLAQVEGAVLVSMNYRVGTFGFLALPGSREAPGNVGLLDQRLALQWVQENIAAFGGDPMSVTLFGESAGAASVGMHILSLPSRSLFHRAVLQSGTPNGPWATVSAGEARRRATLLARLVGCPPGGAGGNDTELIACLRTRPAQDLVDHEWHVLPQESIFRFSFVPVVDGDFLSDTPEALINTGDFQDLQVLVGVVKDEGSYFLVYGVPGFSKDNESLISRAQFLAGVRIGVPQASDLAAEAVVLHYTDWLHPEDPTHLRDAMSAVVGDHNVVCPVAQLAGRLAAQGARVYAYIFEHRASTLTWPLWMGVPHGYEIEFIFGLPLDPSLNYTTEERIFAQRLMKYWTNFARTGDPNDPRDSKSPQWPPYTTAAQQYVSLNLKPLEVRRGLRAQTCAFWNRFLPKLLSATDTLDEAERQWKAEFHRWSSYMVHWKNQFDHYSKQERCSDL
Procedure: as §4, §6

[7] = 7.5 mg/kg b.w., n = 8, 7.5 mg/kg

O=c1cc(-c2ccc(Cl)cc2)oc2ccccc12 [Compound F1]
IC50 [1]: 644 µM
IC50 [2]: 603 µM
ALP (Balb/C mice; 600 mg/kg b.w. oral): 132.54 ± 2.78 U/L
AST (Balb/C mice; 600 mg/kg b.w. oral): 107.89 ± 2.01 U/L
Creatinine (Balb/C mice; 600 mg/kg b.w. oral): 0.36 ± 0.05 mg/dL
Glucose (Balb/C mice; 600 mg/kg b.w. oral): 85.51 ± 2.33 mg/dL
Total Cholesterol (Balb/C mice; 600 mg/kg b.w. oral): 103.19 ± 2.06 mg/dL
Triglyceride (Balb/C mice; 600 mg/kg b.w. oral): 95.20 ± 2.76 mg/dL
Kidney Weight (Balb/C mice; 600 mg/kg b.w. oral): 0.29 ± 0.19 g
Liver Weight (Balb/C mice; 600 mg/kg b.w. oral): 1.24 ± 0.21 g
Total Weight (Balb/C mice; 600 mg/kg b.w. oral): 21.82 ± 1.39 g
ALP (Balb/C mice; 1000 mg/kg b.w. oral): 136.33 ± 2.39 U/L
AST (Balb/C mice; 1000 mg/kg b.w. oral): 108.34 ± 2.66 U/L
Creatinine (Balb/C mice; 1000 mg/kg b.w. oral): 0.38 ± 0.06 mg/dL
Glucose (Balb/C mice; 1000 mg/kg b.w. oral): 86.98 ± 2.09 mg/dL
Total Cholesterol (Balb/C mice; 1000 mg/kg b.w. oral): 102.76 ± 1.87 mg/dL
Triglyceride (Balb/C mice; 1000 mg/kg b.w. oral): 94.78 ± 1.98 mg/dL
Kidney Weight (Balb/C mice; 1000 mg/kg b.w. oral): 0.29 ± 0.18 g
Liver Weight (Balb/C mice; 1000 mg/kg b.w. oral): 1.23 ± 0.26 g
Total Weight (Balb/C mice; 1000 mg/kg b.w. oral): 22.93 ± 1.91 g
ALP (Balb/C mice; 2000 mg/kg b.w. oral): 135.29 ± 4.17 U/L
AST (Balb/C mice; 2000 mg/kg b.w. oral): 109.73 ± 1.98 U/L
Creatinine (Balb/C mice; 2000 mg/kg b.w. oral): 0.34 ± 0.04 mg/dL
Glucose (Balb/C mice; 2000 mg/kg b.w. oral): 86.45 ± 2.27 mg/dL
Total Cholesterol (Balb/C mice; 2000 mg/kg b.w. oral): 102.05 ± 2.01 mg/dL
Triglyceride (Balb/C mice; 2000 mg/kg b.w. oral): 96.22 ± 1.70 mg/dL
Kidney Weight (Balb/C mice; 2000 mg/kg b.w. oral): 0.30 ± 0.20 g
Liver Weight (Balb/C mice; 2000 mg/kg b.w. oral): 1.23 ± 0.24 g
Total Weight (Balb/C mice; 2000 mg/kg b.w. oral): 21.79 ± 1.72 g
ALP (Balb/C mice; 3000 mg/kg b.w. oral): 136.09 ± 3.12 U/L
AST (Balb/C mice; 3000 mg/kg b.w. oral): 109.90 ± 2.09 U/L
Creatinine (Balb/C mice; 3000 mg/kg b.w. oral): 0.29 ± 0.03 mg/dL
Glucose (Balb/C mice; 3000 mg/kg b.w. oral): 85.72 ± 1.97 mg/dL
Total Cholesterol (Balb/C mice; 3000 mg/kg b.w. oral): 101.28 ± 1.98 mg/dL
Triglyceride (Balb/C mice; 3000 mg/kg b.w. oral): 97.41 ± 1.83 mg/dL
Kidney Weight (Balb/C mice; 3000 mg/kg b.w. oral): 0.31 ± 0.27 g
Liver Weight (Balb/C mice; 3000 mg/kg b.w. oral): 1.25 ± 0.29 g
Total Weight (Balb/C mice; 3000 mg/kg b.w. oral): 22.71 ± 1.79 g
Spontaneous Alternation Performance ([3]; 7.5 mg/kg b.w. p.o. 4 weeks): 49.90 ± 1.33%
Spontaneous Alternation Performance ([3]; 15 mg/kg b.w. p.o. 4 weeks): 51.78 ± 1.45%
Spontaneous alternation performance (preliminary, selection of doses) ([3]; Table S1, dose 2.5 mg/kg b.w.): 37.02±2.11
Spontaneous alternation performance (preliminary, selection of doses) ([3]; Table S1, dose 5 mg/kg b.w.): 38.91±1.67
Spontaneous alternation performance (preliminary, selection of doses) ([3]; Table S1, dose 7.5 mg/kg b.w.): 49.12±1.45
Spontaneous alternation performance (preliminary, selection of doses) ([3]; Table S1, dose 10 mg/kg b.w.): 48.66±1.98
Spontaneous alternation performance (preliminary, selection of doses) ([3]; Table S1, dose 12.5 mg/kg b.w.): 48.98±2.01
Spontaneous alternation performance (preliminary, selection of doses) ([3]; Table S1, dose 15 mg/kg b.w.): 51.72±1.88
Spontaneous alternation performance (preliminary, selection of doses) ([3]; Table S1, dose 20 mg/kg b.w.): 52.03±2.03
discrimination index (%DI) ([4]; 7.5 mg/kg b.w. p.o. 4 weeks): 48.67 ± 1.57%
discrimination index (%DI) ([4]; 15 mg/kg b.w. p.o. 4 weeks): 51.11 ± 1.48%
GSH ([5]; 7.5 mg/kg b.w.): 34.62 ± 1.50 μg/mg of Protein
MDA ([5]; 7.5 mg/kg b.w.): 16.39 ± 1.28 nmol/mg Protein
CAT [5, 7]: 21.93 ± 1.37 U/mg of Protein
SOD [5, 7]: 8.97 ± 1.12 U/mg of Protein
GSH ([5]; 15 mg/kg b.w.): 35.70 ± 1.47 μg/mg of Protein
MDA ([5]; 15 mg/kg b.w.): 16.12 ± 1.47 nmol/mg Protein
CAT ([5]; 15 mg/kg b.w., n = 8, 15 mg/kg): 22.31 ± 1.22 U/mg of Protein
SOD ([5]; 15 mg/kg b.w., n = 8, 15 mg/kg): 9.12 ± 1.28 U/mg of Protein
level of AChE ([6]; 7.5 mg/kg b.w.): 21.31 ± 0.53
level of AChE ([6]; 15 mg/kg b.w.): 21.01 ± 0.61
